Assays:
U2OS, human osteosarcoma = assay: MTT assay, U2OS cells; type: cell-based; conditions: 72 hours
Experimental: Cell Line and Cell Culture. Healthy normal fibroblast GM61869, human cancer NTera-2, human cervical cancer HeLa, human osteosarcoma cell line U2OS were obtained from the ATCC. Cells were incubated at 37° C. in 5% CO2 and grown in DMEM medium supplemented with 10% fetal bovine serum and 1% penicillin/streptomycin. Cells were passed every 3 to 4 days and restarted from the frozen stock upon reaching pass number 20.
(§1) MTT Assay. Cytotoxic behavior of compound 1, DCA and cis-DDP were evaluated using the MTT assay. Solutions of the platinum complexes were freshly prepared in sterile PBS before use and quantitated by atomic absorption spectroscopy. Cells were seeded on a 96 well plate (1000 cells per well for NTera-2, U2OS, HeLa; 1400 per well for normal fibriblast; 500 per well for 7B, 10B, 175F and 150×2) in 100 μL DMEM media and incubated for 24 hours. The cells were then treated with compound 1, DCA or cis-DDP, separately at varying concentrations and incubated for 72 hours at 37° C. The cells were then treated with 20 μL of 3-(4,5-dimethylthiazol-2-yl)-2,5-diphenyltetrazolium bromide (MTT) (5 mg/mL in PBS) and incubated for 5 h. The medium was removed, the cells were lysed by adding 100 μl, of DMSO, and the absorbance of the purple formazan was recorded at 550 nm using a BioTek Synergy HT multi-detection microplate plate reader. Each well was performed in triplicate in three independent experiments for each cell line.

[1] = test system: A2780/CP70, cisplatin-resistant human ovarian carcinoma; assay: MTT assay, A2780/CP70 cells; type: cell-based; conditions: A2780/CP70 cisplatin resistant cells, 72 h
Experimental: A more negative membrane potential might promote translocation of the active, cationic form of cisplatin from the cytoplasm to mitochondria, thus diminishing platination of nuclear DNA. […] Thus, a pair of cisplatin sensitive A2780 and resistant A2780/CP70 ovarian cancer cells were studied (Table 1 and FIG. 10). […] (▴) with (A) cisplatin sensitive A2780 cells and (B) cisplatin resistant A2780/CP70 cells, after 72 h as determined by the MTT assay. The controls were cisplatin and c,c,t-[Pt(NH3)2Cl2(O2CCH3)2]. […] Results for the A2780/CP70 cells indicate that DCA plays a role, in this embodiment, in making cisplatin-resistant cells susceptible towards mitaplatin treatment.
as §1

[2] = Cyclic voltammetry, Pt(IV)/Pt(II) couple; type: physicochemical
Text: Materials and Measurements. The complexes cis-[Pt(NH3)2Cl2], and c, c, t-[Pt(NH3)2Cl2(OH)2] were synthesized as previously described. Distilled water was purified by passage through a Millipore Milli-Q Biocel water purification system (18.2 MΩ) with a 0.22 μm filter. For the detection of cisplatin 1,2-d(GpG) intrastrand adduct, a monoclonal adduct specific antibody R-C18 was used which was a gift from Anti-cytochrome c (Ab-1) sheep polyclonal antibody was procured from Calbiochem. For AIF detection, rabbit polyclonal IgG antibody was used from Santa Cruz Biotechnology, Inc. Alexa Fluor® 488 labeled secondary antibody donkey anti-(sheep IgG) was obtained from Invitrogen for cytochrome c detection. For AIF detection, Alexa Fluor® 546 labeled secondary antibody goat anti-(rabbit IgG) was purchased from Invitrogen. […] JC-1 (5,5′, 6,6′-tetrachloro-1,1′,3,3′ tetraethylbenzimidazolylcarbocyanine iodide) was obtained from Cayman Chemicals. ^1H NMR and ^195Pt NMR spectra were recorded on a Bruker AVANCE-400 NMR spectrometer with a Spectro Spin superconducting magnet in the Massachusetts Institute of Technology Department of Chemistry Instrumentation Facility (MIT DCIF). […] Fluorescence imaging studies were performed with an Axiovert 200M inverted epifluorescence microscope (Zeiss, Thornwood, N.Y.) equipped with an EM-CCD digital camera C9100 (Hamamatsu, Japan). […]

NTera-2 cells = assay: Immunofluorescence detection of cytochrome c and AIF; type: cell-based, human; conditions: treated NTera-2 cells
Experimental: Detection of cytochrome c and AIF. Normal fibroblast or Ntera-2 cells were seeded on microscope coverslips (1 cm) at a confluence of 1600 cells per slip and incubated overnight at 37° C. in DMEM. The medium was changed and compound 1 was added to a final 500 μM. The cells were incubated for 24 or 48 h at 37° C. Medium was then removed and the cells were incubated with fixing solution for 1 h at room temperature followed by three washes with phosphate buffered saline (PBS, pH 7.4). Cells were then fixed with 4% paraformaldehyde in 0.1 M phosphate buffer (pH 7.4) at room temperature for 1 h, washed twice with PBS. Cells were then permeabilize with 0.1% Triton-X100 in PBS for 30 min, followed by six washes with PBS. Cells were then rinsed with blocking buffer (PBS, 0.1% goat serum, 0.075% glycin). Cells were then incubated for 1 h at 37° C. with the anti-cytochrome c (anti-cytochrome c (Ab-1) Sheep pAb, Calbiochem) antibody or AIF (AIF (H-300), Santa Cruz Biotechnology Inc.) antibody both diluted 1:50 in blocking buffer, washed twice with blocking buffer and incubated at 37° C. with Alexa Fluor 488 donkey anti sheep IgG (Invitrogen) antibody for cytochrome c release and Alexa Fluor 546 goat anti-rabbit IgG (Invitrogen) antibody for AIF (dilution 1:50 in blocking buffer) for 1 h. […]

U2OS = assay: Annexin-V flow cytometry, U2OS cells; type: cell-based, human; conditions: 10 and 20 μM, 72 h
Experimental: (§2) In order to quantify mitaplatin-induced apoptosis in cancer cells, an Annexin-V was performed and analyzed using flow cytometry. With this analysis, the percentage of apoptotic cells found was determined at 72 h after exposure of mitaplatin and cisplatin.

HeLa = assay: Annexin-V flow cytometry, HeLa cells; type: cell-based, human; conditions: 10 and 20 μM, 72 h
Experimental: as §2

[NH2][Pt]([NH2])([Cl])([Cl])([O]C(=O)C(Cl)Cl)[O]C(=O)C(Cl)Cl [Mitaplatin, c,c,t-[Pt(NH3)2Cl2(O2CCHCl2)2]]
IC50 (U2OS, human osteosarcoma): 6.4 µM | IC50 [1]: 3.34 µM | reduction potential, Pt(IV)/Pt(II) couple ([2]; pH 6.0, 25° C.): −0.152 V vs Ag/AgCl | reduction potential, Pt(IV)/Pt(II) couple ([2]; pH 7.4, irreversible cyclic voltammetric response, 25° C.): ~−0.173 V vs Ag/AgCl | apoptosis inducing factor AIF location (NTera-2 cells): located in the nucleus | cytochrome c distribution (NTera-2 cells): diffusely distributed in the cytoplasm | apoptosis (Annexin-V) (U2OS): Apoptosis was detected | apoptosis (Annexin-V) (HeLa): Apoptosis was detected

— patent US9265747B2, “Platinum (IV) complexes for use in dual mode pharmaceutical therapy” (Massachusetts Institute of Technology, priority 2008, dated 2016)
